Test system: mold on REF-PET bottles
Experiment: Mold Remove Ability Test
Details: alkaline bottlewashing environment; conditions not given
Description: 1. Mold Remove Ability Test A) Compositions are prepared according to the following general formula: [table] B) Select field returned bottles with heavy mold (black). Select 4 bottles per testing sequence. C) Cut the mold samples from REF-PET bottles using a utility knife. D) Label PET/mold pieces to keep track of the source bottle and the solution in which they are tested. E) Prepare solutions using 2.8% NaOH and 1% of the bottlewashing additive unless otherwise specified. F) Preheat the solutions to 55° C. G) Immerse PET/mold samples in respective bottlewashing compositions and soaked for 15 minutes with stirring at 400 rpm. H) If the mold is removed during testing note the time of removal. I) Remove the samples from solution. If the mold was not removed, rinse the sample in tap water for 10 seconds to see if mold can be removed at this point. J) Grade the samples by a % of mold removed and average the 4 tests as well as the time required for removal (Time Removal Grade). Time Grade is defined as follows: [table] Other Grades may be in between or lower depending on total mold removal

C6 alkyl diphenylene oxide disulfonate
cleaning / mold removal by the surfactant (general statement): superior cleaning/mold removal characteristics

Source: patent publication US20050037939A1, “Bottlewash additive” (Scimed Life Systems, Inc., priority 2002, published 2005)
